# Experiments:
# Assay type in all cases: biochemical
# [1] = molecular target: PI3K-gamma (Homo sapiens, UniProt P48736); assay: PI3K-gamma fluorescence polarization assay; details: PI3Kγ Avg. IC50
# Outline: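 Reactions used 5 ng enzyme with 2.5 μM diC8-PI(4,5)P2 and 25 μM ATP in 5 mM HEPES pH 7, 2.5 mM MgCl2, run 1 h at 25° C. After an EDTA quench (10 mM), 100 nM GST-GRP1 PH domain and 5 nM BODIPY-TMR-IP4 were added and fluorescence polarization was read.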
# [2] = molecular target: T1, human TOR (Homo sapiens, UniProt P42345); assay: mTOR enzyme assay (DELFIA, His6-S6K substrate); details: read-out: mTOR Kinase Avg. IC50
# T1 construct: FLAG
# [3] = molecular target: PI3K-alpha (Homo sapiens, UniProt P42336); assay: PI3K-alpha fluorescence polarization assay; details: read-out: PI3Kα Avg. IC50
# Chain of PI3K-alpha (P42336 whole entry, species assumed): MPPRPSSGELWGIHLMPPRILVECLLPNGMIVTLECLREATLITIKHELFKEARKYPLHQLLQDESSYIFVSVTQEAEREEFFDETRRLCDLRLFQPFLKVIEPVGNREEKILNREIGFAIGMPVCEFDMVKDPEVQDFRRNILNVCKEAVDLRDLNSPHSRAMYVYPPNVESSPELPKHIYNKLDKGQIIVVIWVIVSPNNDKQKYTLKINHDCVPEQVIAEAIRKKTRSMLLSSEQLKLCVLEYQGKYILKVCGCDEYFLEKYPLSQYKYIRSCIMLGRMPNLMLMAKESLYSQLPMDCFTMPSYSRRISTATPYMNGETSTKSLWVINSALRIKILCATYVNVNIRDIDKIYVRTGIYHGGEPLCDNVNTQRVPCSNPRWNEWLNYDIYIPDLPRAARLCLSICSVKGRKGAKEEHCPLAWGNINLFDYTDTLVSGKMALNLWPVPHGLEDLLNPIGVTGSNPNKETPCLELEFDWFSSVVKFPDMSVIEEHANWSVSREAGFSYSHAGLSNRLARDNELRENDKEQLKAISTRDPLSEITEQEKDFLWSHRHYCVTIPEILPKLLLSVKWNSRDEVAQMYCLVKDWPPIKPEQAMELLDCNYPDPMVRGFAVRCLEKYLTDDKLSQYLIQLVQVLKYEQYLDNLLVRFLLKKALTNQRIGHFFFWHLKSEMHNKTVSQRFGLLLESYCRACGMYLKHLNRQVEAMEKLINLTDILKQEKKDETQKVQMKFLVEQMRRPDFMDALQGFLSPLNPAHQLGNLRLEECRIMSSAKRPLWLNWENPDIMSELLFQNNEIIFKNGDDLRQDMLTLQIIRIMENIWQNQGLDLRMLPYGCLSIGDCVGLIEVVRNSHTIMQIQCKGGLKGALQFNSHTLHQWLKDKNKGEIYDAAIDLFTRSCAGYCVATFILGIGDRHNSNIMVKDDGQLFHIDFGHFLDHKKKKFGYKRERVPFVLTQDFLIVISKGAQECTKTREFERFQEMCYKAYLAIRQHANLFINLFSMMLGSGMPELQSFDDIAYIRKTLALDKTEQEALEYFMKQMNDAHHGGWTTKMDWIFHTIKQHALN
# Chain of PI3K-alpha (P27986 whole entry partner, species assumed): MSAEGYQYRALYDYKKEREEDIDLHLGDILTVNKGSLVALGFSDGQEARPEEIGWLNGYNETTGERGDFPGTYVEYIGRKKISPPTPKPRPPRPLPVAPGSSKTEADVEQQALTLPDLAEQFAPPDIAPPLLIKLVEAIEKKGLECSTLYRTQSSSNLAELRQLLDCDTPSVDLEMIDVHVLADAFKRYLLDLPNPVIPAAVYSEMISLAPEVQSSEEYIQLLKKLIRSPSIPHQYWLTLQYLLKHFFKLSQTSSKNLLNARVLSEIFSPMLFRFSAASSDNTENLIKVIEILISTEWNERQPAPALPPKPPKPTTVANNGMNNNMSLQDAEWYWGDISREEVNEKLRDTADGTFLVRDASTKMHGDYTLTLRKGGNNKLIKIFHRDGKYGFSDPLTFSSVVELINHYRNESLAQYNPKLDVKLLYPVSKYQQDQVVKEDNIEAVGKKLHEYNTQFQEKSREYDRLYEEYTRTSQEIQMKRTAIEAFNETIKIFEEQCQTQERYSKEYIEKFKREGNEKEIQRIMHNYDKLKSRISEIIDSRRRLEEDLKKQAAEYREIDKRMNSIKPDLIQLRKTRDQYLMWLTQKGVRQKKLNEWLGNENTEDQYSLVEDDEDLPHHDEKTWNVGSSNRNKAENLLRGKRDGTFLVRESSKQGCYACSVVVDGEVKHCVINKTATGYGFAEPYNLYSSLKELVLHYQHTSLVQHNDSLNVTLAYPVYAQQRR
# Chain of PI3K-gamma (P48736 whole entry, species assumed, the tested form may be a part): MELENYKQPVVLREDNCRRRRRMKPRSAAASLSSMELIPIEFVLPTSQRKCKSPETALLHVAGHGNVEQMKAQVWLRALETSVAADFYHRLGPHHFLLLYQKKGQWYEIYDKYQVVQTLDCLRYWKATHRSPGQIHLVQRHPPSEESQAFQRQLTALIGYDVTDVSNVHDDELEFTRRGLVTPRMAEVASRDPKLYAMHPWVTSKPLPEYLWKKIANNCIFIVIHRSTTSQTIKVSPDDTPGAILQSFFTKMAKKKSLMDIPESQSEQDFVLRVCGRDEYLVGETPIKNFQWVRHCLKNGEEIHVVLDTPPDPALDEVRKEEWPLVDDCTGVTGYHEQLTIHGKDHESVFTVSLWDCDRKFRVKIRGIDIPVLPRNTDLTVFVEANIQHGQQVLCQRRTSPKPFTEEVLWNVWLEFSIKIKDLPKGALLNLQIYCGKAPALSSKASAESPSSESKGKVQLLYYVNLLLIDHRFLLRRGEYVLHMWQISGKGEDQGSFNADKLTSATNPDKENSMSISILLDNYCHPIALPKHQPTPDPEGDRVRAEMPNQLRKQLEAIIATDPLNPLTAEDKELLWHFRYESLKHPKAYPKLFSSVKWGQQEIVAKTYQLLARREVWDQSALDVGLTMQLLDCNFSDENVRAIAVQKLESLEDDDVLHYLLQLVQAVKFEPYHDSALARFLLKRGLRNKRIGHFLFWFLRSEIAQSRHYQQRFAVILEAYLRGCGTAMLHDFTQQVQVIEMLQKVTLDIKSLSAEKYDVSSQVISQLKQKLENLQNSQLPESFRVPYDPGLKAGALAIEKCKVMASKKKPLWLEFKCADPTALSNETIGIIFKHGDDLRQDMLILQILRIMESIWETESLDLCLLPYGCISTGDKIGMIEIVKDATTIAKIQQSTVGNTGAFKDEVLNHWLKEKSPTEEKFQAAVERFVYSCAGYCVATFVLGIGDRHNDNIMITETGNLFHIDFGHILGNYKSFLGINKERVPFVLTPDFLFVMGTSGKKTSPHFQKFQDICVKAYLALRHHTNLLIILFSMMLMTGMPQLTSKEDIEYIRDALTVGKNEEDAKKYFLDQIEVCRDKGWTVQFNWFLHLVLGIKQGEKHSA
Structure (SMILES),IC50 [1] [nM],IC50 [2] [nM],IC50 [3] [nM]
"CNCCNC(=O)c1ccc(NC(=O)Nc2ccc3c(c2)C(=O)/C(=C/c2c(C)n(C)c4ccc(OC)cc24)O3)cc1 [Compound 661, 4-[({(2Z)-2-[(5-methoxy-1,2-dimethyl-1H-indol-3-yl)methylene]-3-oxo-2,3-dihydro-1-benzofuran-5-yl}carbamoyl)amino]-N-[2-(methylamino)ethyl]benzamide]",2,6,0.3
"Cn1cc(/C=C2\Oc3cc(O)cc(O)c3C2=O)c2c(-c3ccccc3F)cccc21 [Example 366, (2Z)-2-{[4-(2-Fluorophenyl)-1-methyl-1H-indol-3-yl]methylene}-4,6-dihydroxy-1-benzofuran-3(2H)-one]",3930,75.5,1090
"CC(C)Oc1ccc(-c2cccc3c2c(/C=C2\Oc4cc(O)cc(O)c4C2=O)cn3C)cc1 [Example 381, (2Z)-4,6-dihydroxy-2-{[4-(4-isopropoxyphenyl)-1-methyl-1H-indol-3-yl]methylene}-1-benzofuran-3(2H)-one]",3950,180,2740
"CNC(=O)Nc1ccc2c(c1)C(=O)/C(=C/c1c(-c3cnn(C)c3C)[nH]c3ccc(OC)cc13)O2 [Compound 723, 1-[(2Z)-2-{[2-(1,5-dimethyl-1H-pyrazol-4-yl)-5-methoxy-1H-indol-3-yl]methylidene}-3-oxo-2,3-dihydro-1-benzofuran-5-yl]-3-methylurea]",4.1,3,1
"CNCCn1c(-c2c(C)nn(C)c2C)c(/C=C2\Oc3ccc(NC(=O)NC)cc3C2=O)c2cc(OC)ccc21 [Compound 672, 1-[(2Z)-2-({5-methoxy-1-[2-(methylamino)ethyl]-2-(1,3,5-trimethyl-1H-pyrazol-4-yl)-1H-indol-3-yl}methylidene)-3-oxo-2,3-dihydro-1-benzofuran-5-yl]-3-methylurea]",180,27,10.5
"CNC(=O)Nc1ccc2c(c1)C(=O)/C(=C/c1c(C(C)(C)C)[nH]c3ccc(OC)cc13)O2 [Compound 631, 1-{(2Z)-2-[(2-tert-butyl-5-methoxy-1H-indol-3-yl)methylidene]-3-oxo-2,3-dihydro-1-benzofuran-5-yl}-3-methylurea]",54.5,2,5
"CCn1c(C)c(/C=C2\Oc3ccc(NC(=O)Nc4ccc(OCCCCN(C)C)cc4)cc3C2=O)c2cc(OC)ccc21 [Compound 668, 1-{4-[4-(dimethylamino)butoxy]phenyl}-3-{(2Z)-2-[(1-ethyl-5-methoxy-2-methyl-1H-indol-3-yl)methylidene]-3-oxo-2,3-dihydro-1-benzofuran-5-yl}urea]",12.3,295,2.87
"CNC(=O)Nc1ccc2c(c1)C(=O)/C(=C/c1c(-c3nc(C4CC4)no3)n(CCN3CCN(C)CC3)c3ccc(OC)cc13)O2 [Compound 626, 1-[(2Z)-2-({2-(3-cyclopropyl-1,2,4-oxadiazol-5-yl)-5-methoxy-1-[2-(4-methylpiperazin-1-yl)ethyl]-1H-indol-3-yl}methylidene)-3-oxo-2,3-dihydro-1-benzofuran-5-yl]-3-methylurea]",470,66,3
"COc1ccc2c(c1)c(/C=C1\Oc3cc(O)ccc3C1=O)c(C)n2CCN1CCC(C)CC1 [Example 455, (2Z)-6-Hydroxy-2-({5-methoxy-2-methyl-1-[2-(4-methylpiperidin-1-yl)ethyl]-1H-indol-3-yl}methylene)-1-benzofuran-3(2H)-one]",612,1400,39

# More lines, now with the values ahead:
IC50 [1] [nM],IC50 [2] [nM],IC50 [3] [nM],Structure (SMILES)
5260,111,2760,"CN(C)c1cccc(-c2cccc3c2c(/C=C2\Oc4cc(O)cc(O)c4C2=O)cn3C)c1 [Example 398, (2Z)-2-({4-[3-(Dimethylamino)phenyl]-1-methyl-1H-indol-3-yl}methylene)-4,6-dihydroxy-1-benzofuran-3(2H)-one]"
1280,123,698,"Cn1cc(/C=C2\Oc3cc(O)cc(O)c3C2=O)c2c(-c3ccc(F)cc3)cccc21 [Example 364, (2Z)-2-{[4-(4-Fluorophenyl)-1-methyl-1H-indol-3-yl]methylene}-4,6-dihydroxy-1-benzofuran-3(2H)-one]"
19.7,783,0.9,"CCn1c(C)c(/C=C2\Oc3ccc(NC(=O)Nc4ccc(C(=O)C5CCN(C)CC5)cc4)cc3C2=O)c2cc(OC)ccc21 [Compound 651, 1-{(2Z)-2-[(1-ethyl-5-methoxy-2-methyl-1H-indol-3-yl)methylene]-3-oxo-2,3-dihydro-1-benzofuran-5-yl}-3-{4-[(1-methylpiperidin-4-yl)carbonyl]phenyl}urea]"
2250,12.3,750,"CC(=O)Nc1ccc(-c2cccc3c2c(/C=C2\Oc4cc(O)cc(O)c4C2=O)cn3C)cc1 [Example 383, N-(4-{3-[(Z)-(4,6-Dihydroxy-3-oxo-1-benzofuran-2(3H)-ylidene)methyl]-1-methyl-1H-indol-4-yl}phenyl)acetamide]"
214,8,3,"COc1ccc2c(c1)c(/C=C1\Oc3ccc(NC(=O)Nc4cccnc4)cc3C1=O)c(C1CCCC1)n2CCN1CCN(C)CC1 [Compound 638, 1-[(2Z)-2-({2-cyclopentyl-5-methoxy-1-[2-(4-methylpiperazin-1-yl)ethyl]-1H-indol-3-yl}methylene)-3-oxo-2,3-dihydro-1-benzofuran-5-yl]-3-pyridin-3-ylurea]"
3280,200,1350,"CC(=O)Nc1cccc(-c2cccc3c2c(/C=C2\Oc4cc(O)cc(O)c4C2=O)cn3C)c1 [Example 388, N-(3-{3-[(Z)-(4,6-Dihydroxy-3-oxo-1-benzofuran-2(3H)-ylidene)methyl]-1-methyl-1H-indol-4-yl}phenyl)acetamide]"
3360,9100,187,"O=C1C(=Cc2c[nH]c3ccc(I)cc23)Oc2cc(O)cc(O)c21 [Example 177, 4,6-dihydroxy-2-[(5-iodo-1H-indol-3-yl)methylene]-1-benzofuran-3(2H)-one]"
8140,2030,> 10000,"COc1cc(O)cc2c1C(=O)/C(=C/c1c(-c3ccccc3)n(C)c3ccccc13)O2 [Example 432, (2Z)-6-Hydroxy-4-methoxy-2-[(1-methyl-2-phenyl-1H-indol-3-yl)methylene]benzofuran-3(2H)-one]"
> 10000,> 20000,9500,"O=C(O)c1ccc2[nH]cc(C=C3Oc4cc(O)cc(O)c4C3=O)c2c1 [Example 165, 3-[(4,6-dihydroxy-3-oxo-1-benzofuran-2(3H)-ylidene)methyl]-1H-indole-5-carboxylic acid]"
4590,340,3520,"CN(C)CCCNC(=O)c1ccc(-c2cccc3c2c(/C=C2\Oc4cc(O)cc(O)c4C2=O)cn3C)cc1 [Example 387, 4-{3-[(Z)-(4,6-Dihydroxy-3-oxo-1-benzofuran-2(3H)-ylidene)methyl]-1-methyl-1H-indol-4-yl}-N-[3-(dimethylamino)propyl]benzamide]"

# Source: patent US20090311217A1, “3-SUBSTITUTED-1H-INDOLE COMPOUNDS, THEIR USE AS MTOR KINASE AND PI3 KINASE INHIBITORS, AND THEIR SYNTHESES” (priority 2008, published 2009)
